Values quoted from earlier work, collected in US20090105490A1, “Polymorphic forms of ramelteon and processes for preparation thereof” (priority 2007, published 2009).
Read-outs that look alike come from different tables or passages of the source.

How the values were obtained:
MT3 receptor = conditions: MT1 and MT2 versus MT3
melatonin MT1 receptor = melatonin MT1 receptor (Homo sapiens, UniProt P48039); conditions: melatonin receptor agonist
melatonin MT2 receptor = molecular target: T1, melatonin MT2 receptor (Homo sapiens, UniProt P49286); conditions: melatonin receptor agonist
T1 sequence (P49286 1-362): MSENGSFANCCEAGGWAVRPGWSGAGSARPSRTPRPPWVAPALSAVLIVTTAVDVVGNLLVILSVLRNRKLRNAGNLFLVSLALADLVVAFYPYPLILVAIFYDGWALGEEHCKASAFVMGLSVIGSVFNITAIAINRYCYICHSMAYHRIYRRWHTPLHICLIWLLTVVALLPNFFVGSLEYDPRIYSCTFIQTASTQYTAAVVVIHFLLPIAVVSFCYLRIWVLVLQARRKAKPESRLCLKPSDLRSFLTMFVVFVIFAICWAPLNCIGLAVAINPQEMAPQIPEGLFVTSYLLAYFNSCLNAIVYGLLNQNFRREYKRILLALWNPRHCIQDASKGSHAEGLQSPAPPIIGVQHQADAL

melatonin MT1 receptor, sequence (P48039 whole entry): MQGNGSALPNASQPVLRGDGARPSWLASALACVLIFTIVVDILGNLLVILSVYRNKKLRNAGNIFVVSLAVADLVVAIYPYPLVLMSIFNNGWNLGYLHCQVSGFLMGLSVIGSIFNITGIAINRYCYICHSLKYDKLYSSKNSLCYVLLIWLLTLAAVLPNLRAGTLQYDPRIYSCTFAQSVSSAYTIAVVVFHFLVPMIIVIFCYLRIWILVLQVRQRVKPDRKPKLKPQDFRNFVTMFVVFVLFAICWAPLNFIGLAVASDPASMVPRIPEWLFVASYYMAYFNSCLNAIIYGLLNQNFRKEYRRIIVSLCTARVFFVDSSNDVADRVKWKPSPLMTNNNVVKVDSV

selectivity over the MT3 receptor (MT3 receptor): selectivity over the MT3 receptor
affinity for melatonin MT1 receptor (melatonin MT1 receptor): high affinity
solubility (1-octanol): freely soluble
solubility (DMSO): freely soluble
solubility (aqueous buffers): slightly soluble
solubility (ethanol): freely soluble
solubility (methanol): freely soluble
solubility (water): slightly soluble
affinity for melatonin MT2 receptor (melatonin MT2 receptor): high affinity
Compound: CCC(=O)NCC[C@@H]1CCc2ccc3c(c21)CCO3 [Ramelteon, (S)-N-[2-(1,6,7,8-tetrahydro-2H-indeno-[5,4-b]furan-8-yl)ethyl]propionamide]
